{"source": "patent US20250136652A1", "about": "“FUSION PROTEIN FOR TARGETING RECOMBINANT PROTEINS FOR DEGRADATION” (The Regents of the University of California, priority 2022, published 2025)", "key": {"[1]": {"system": "4-1BB variant second-generation ('BBz') CARs that target CD19 or HER2", "assay": "Surface CAR expression in Jurkat T cells by anti-myc antibody stain and flow cytometry", "format": "cell-based", "conditions": "72 hours after removal of lentivirus", "method": "FIG. 4A: Tethering of STUD to plasma membrane allows for functional knockdown for second-generation chimeric antigen receptors (CAR). Cartoon diagram of membrane tethered STUD (‘memSTUD’) and non-functional (‘NF’) control relative to original ‘soluble’ STUD design. The DNA cartoon represents the plasmid used in experiments done in this panel. (RRRG (SEQ ID NO:32); TRGN (SEQ ID NO:50)).\nFIG. 4B: Plasmid diagramed in FIG. 4A transduced into Jurkat T cells and CAR fluorescence measured 72 hours removal of lentivirus. CAR fluorescence is measured by antibody stain for myc tag fused to CAR extracellular domain. […] Dots represent three independent experiments and errors bars show standard deviation.\nIncreasing the local concentration of the STUD at the membrane by fusion to a membrane localization domain was tested. […] The surface CAR expression by fluorescence of this antibody stain was measured by flow cytometry.\nMembrane targeting STUD: Membrane targeting cells were introduced by lentiviral transduction of two plasmids. […] Cells were then analyzed by flow cytometry. Cells were gated on expression of co-transduction fluorescent proteins (BFP/mCherry) and STUD efficacy was measured by knockdown of CAR/SynNotch. CAR and SynNotch expression was measured by antibody staining for a peptide tag fused to the extracellular domain of the CAR/SynNotch. […]"}, "[2]": {"system": "green fluorescent protein (GFP) target", "assay": "STUD-induced degradation of GFP target in Jurkat T cells, flow cytometry", "format": "cell-based", "conditions": "GFP normalized by tagBFP, 72 hours following removal of lentivirus", "method": "Jurkat cells were lentivirally transduced with two plasmids. The first encodes a STUD, or control with a mutated degron, and a mCherry transduction marker separated by a 2A element and the second encodes GFP target protein and a BFP transduction marker separated by a 2A element. In the case of the SynZip STUD, the GFP target is fused to a heterodimeric SynZip protein complementary to the binding domain on the STUD. These transduced cells are analyzed for fluorescence by flow cytometry […] after removal of virus. Cells are first gated on these transduction markers to isolate relevant populations. Then, normalized GFP fluorescence is calculated by normalizing each cell's GFP fluorescence, as obtained by flow cytometry, by its BFP fluorescence. Then, the median normalized GFP fluorescence of each flow cytometry distribution is calculated and shown in the bar plot. Each dot represents the mean of the median normalized GFP fluorescence of three technical replicates in three independent experiments. […]\nEither the SynZip STUD and the antiGFP nanobody STUD in Jurkat T cells alongside a plasmid encoding either GFP fused to a complementary SynZip or GFP alone, respectively (FIG. 2B) were lentivirally transduced. 72 hours following removal of lentivirus, we assay for GFP fluorescence by flow cytometry. […] Representative histograms of unnormalized GFP fluorescence are also shown for reference. […]"}}}
{"substance": "SynZip STUD: Fusion protein SEQ ID NO: 413: lysine-free modified synZIP18 heterodimerization domain, flexible linker, C-terminal RRRG degron; 55 amino acids (SIAATLENDLARLENENARLERDIANLERDLARLEREEAYFGSGSGSGSGSRRRG)", "values": [{"measurement": "degradation of CAR (surface CAR expression)", "setting": "[1]", "result": "inefficiently"}, {"measurement": "fold change of median normalized GFP fluorescence", "setting": "[2]", "result": "approximately 42 fold"}]}
